Holding throughout (assay type): functional
Experiment [1] concerns Escherichia coli. The experiment is described as follows: Antibacterial activity against Escherichia coli CCUGT incubated for 18 to 24 hrs by CLSI based microdilution broth method. Particulars: Escherichia coli, CCUGT; time 18-24 hrs; read-out: MIC. Background: Broth dilution looks for growth in wells or tubes with falling amounts of substance.
The test system of experiment [2] is Enterococcus faecalis. The experiment is described as follows: Antibacterial activity against Enterococcus faecalis ATCC 19433 incubated for 18 to 24 hrs by CLSI based microdilution broth method. The settings on record: time 18-24 hrs.
In experiment [3] the test system is Bacillus subtilis. The experiment is described as follows: Antibacterial activity against Bacillus subtilis ATCC 6633 incubated for 18 to 24 hrs by CLSI based microdilution broth method. The settings on record: time 18-24 hrs.
In experiment [4] the test system is Staphylococcus aureus. The experiment is described as follows: Antibacterial activity against Staphylococcus aureus ATCC 25923 incubated for 18 to 24 hrs by CLSI based microdilution broth method. Particulars: time 18-24 hrs.
Experiment [5] relates to Streptococcus pyogenes. The experiment is described as follows: Antibacterial activity against Streptococcus pyogenes ATCC 12344 incubated for 18 to 24 hrs by CLSI based microdilution broth method. The settings on record: time 18-24 hrs.
Experiment [6] has as its system Acinetobacter baumannii. The experiment is described as follows: Antibacterial activity against Acinetobacter baumannii ATCC 17978 incubated for 18 to 24 hrs by CLSI based microdilution broth method. The settings on record: Acinetobacter baumannii, ATCC 17978; time 18-24 hrs.
The subject of experiment [7] is Pseudomonas aeruginosa. The experiment is described as follows: Antibacterial activity against Pseudomonas aeruginosa ATCC 27853 incubated for 18 to 24 hrs by CLSI based microdilution broth method. Particulars: Pseudomonas aeruginosa, ATCC 27853; time 18-24 hrs.
Experiment [8] relates to Klebsiella pneumoniae. The experiment is described as follows: Antibacterial activity against Klebsiella pneumoniae ATCC 13833 incubated for 18 to 24 hrs by CLSI based microdilution broth method. Particulars: Klebsiella pneumoniae, ATCC 13833; time 18-24 hrs; read-out: MIC.

Structures are written as SMILES. Converted amounts (≈) assume the structure as drawn.

With `N=C(N)NCCCCCCCN(CCCCCCCNC(=N)NCC1CC1)C(=O)N(CCCCCCCNC(=N)N)CCCCCCCNC(=N)NCC1CC1.O=C(O)C(F)(F)F`, the MIC – broadly, the lowest concentration found to suppress growth – in experiment [1] stood at 8 µg/mL; in experiment [2] it was 8 µg/mL; in experiment [3] it was 2 µg/mL; in experiment [4], 2 µg/mL; in experiment [5], 4 µg/mL; in experiment [6], 32 µg/mL. The values for the MIC in experiment [7] and in experiment [8] were 32 µg/mL and 8 µg/mL, respectively.

On to `CNC(=O)NCCCCCCCCN(CCCCCCCCNC(=N)NCC1CC1)C(=O)N(CCCCCCCCNC(=N)NCC1CC1)CCCCCCCCNC(=O)NC.O=C(O)C(F)(F)F`, for which the MIC came to 16 µg/mL in experiment [1]; 8 µg/mL in experiment [2]; 4 µg/mL in experiment [3]; 4 µg/mL in experiment [4]; 4 µg/mL in experiment [5]; 64 µg/mL in experiment [6]. For the same compound, the values for the MIC in experiment [7] and in experiment [8] were 128 µg/mL and 16 µg/mL, respectively.

With `CCCCNC(=N)NCCCCCCCCN(CCCCCCCCNC(=N)N)C(=O)N(CCCCCCCCNC(=N)N)CCCCCCCCNC(=N)NCCCC.O=C(O)C(F)(F)F`, the MIC in experiment [1] was determined as 2 µg/mL; in experiment [2], 2 µg/mL; in experiment [3] it was 1 µg/mL; in experiment [4] it was 1 µg/mL; in experiment [5], 2 µg/mL; in experiment [6] it was 4 µg/mL. For the same compound, the MIC in experiment [7] was found to be 8 µg/mL; in experiment [8], 2 µg/mL.

As for `N=C(N)NCCCCCCCCN(CCCCCCCCNC(=N)NC1CCCC1)C(=O)N(CCCCCCCCNC(=N)N)CCCCCCCCNC(=N)NC1CCCC1.O=C(O)C(F)(F)F`, the MIC in experiment [1] turned out to be 1 µg/mL; in experiment [2] it was 1 µg/mL; in experiment [3], 1 µg/mL; in experiment [4] it was 0.25 µg/mL; in experiment [5], 1 µg/mL; in experiment [6], 4 µg/mL. In addition, the values for the MIC in experiment [7] and in experiment [8] were 8 µg/mL and 1 µg/mL, respectively.

For `N=C(N)NCCCCCCCCN(CCCCCCCCNC(=N)NCC1CC1)C(=O)N(CCCCCCNC(=N)N)CCCCCCNC(=N)NCC1CC1.O=C(O)C(F)(F)F`, the minimal inhibitory concentration (MIC) in experiment [1] turned out to be 8 µg/mL; in experiment [2], 4 µg/mL; in experiment [3], 2 µg/mL; in experiment [4], 0.5 µg/mL; in experiment [5] it was 1 µg/mL; in experiment [6], 16 µg/mL. Moreover, the MIC in experiment [7] was 16 µg/mL; in experiment [8], 4 µg/mL.

On to `CNC(=S)NCCCCCCCCN(CCCCCCCCNC(=N)NCC1CC1)C(=O)N(CCCCCCCCNC(=N)NCC1CC1)CCCCCCCCNC(=S)NC.O=C(O)C(F)(F)F`, for which the MIC in experiment [1] turned out to be 8 µg/mL; in experiment [2], 4 µg/mL; in experiment [3], 4 µg/mL; in experiment [4], 2 µg/mL; in experiment [5], 4 µg/mL; in experiment [6], 128 µg/mL. Moreover, the MIC in experiment [7] was determined as 64 µg/mL; in experiment [8] it was 16 µg/mL.

Regarding `CCCCCCCCCC(=O)N[C@@H](Cc1c[nH]c2ccccc12)C(=O)N[C@H](CC(N)=O)C(=O)N[C@@H](CC(=O)O)C(=O)N[C@@H]1C(=O)NCC(=O)N[C@@H](CCCN)C(=O)N[C@@H](CC(=O)O)C(=O)N[C@H](C)C(=O)N[C@@H](CC(=O)O)C(=O)NCC(=O)N[C@H](CO)C(=O)N[C@@H]([C@H](C)CC(=O)O)C(=O)N[C@@H](CC(=O)c2ccccc2N)C(=O)O[C@@H]1C`, the MIC in experiment [2] was found to be 1 µg/mL (≈ 0.617 µM); in experiment [3], 1 µg/mL (≈ 0.617 µM); in experiment [4], 0.12 µg/mL (≈ 0.074 µM); in experiment [5], 0.5 µg/mL (≈ 0.309 µM).

As to `CN[C@H](CC(C)C)C(=O)N[C@H]1C(=O)N[C@@H](CC(N)=O)C(=O)N[C@H]2C(=O)N[C@H]3C(=O)N[C@H](C(=O)N[C@H](C(=O)O)c4cc(O)cc(O)c4-c4cc3ccc4O)[C@H](O)c3ccc(c(Cl)c3)Oc3cc2cc(c3O[C@@H]2O[C@H](CO)[C@@H](O)[C@H](O)[C@H]2O[C@H]2C[C@](C)(N)[C@H](O)[C@H](C)O2)Oc2ccc(cc2Cl)[C@H]1O` [VANCOMYCIN], the MIC in experiment [2] amounted to 1 µg/mL (≈ 0.69 µM); in experiment [3] it was 0.5 µg/mL (≈ 0.345 µM); in experiment [5], 1 µg/mL (≈ 0.69 µM).

Values taken from ChEMBL document CHEMBL5500347, “An update on antibacterial AlkylGuanidino Ureas: Design of new derivatives, synergism with colistin and data analysis of the whole library” (2024).
